The text below walks through data of patent publication US10981888B2, “Preparation method for tricyclic compounds” (BAYER CROPSCIENCE AKTIENGESELLSCHAFT, priority 2016, dated 2021).

A short description of the first data set: determination of log P values by HPLC on a reversed-phase column (C18), EEC Directive 79/831 Annex V.A8.
Conditions: not given
The format is physicochemical. On the procedure:
^a) Note regarding the determination of the log P values and mass detection: The determination of the given log P values was carried out in accordance with EEC Directive 79/831 Annex V.A8 by HPLC (High Performance Liquid Chromatography) on a reversed-phase column (C18). […] Mass detection is via an Agilent MSD system. […] Mass detection is via an Agilent MSD system. The mass stated is the peak of the molecular ion+hydrogen [M+H]^+ (molecular ion=sum of the masses of the most abundant natural isotopes of which the molecule consists). ^c) GC/MS (gas chromatography/mass spectrometry) on dimethylsilicone phase. 10 m DB-1, ID=0.18 mm, film thickness=0.4 μm; injector: 250° C., carrier gas flow rate: […] helium; detector: MSD: 280° C., FID: 320° C.; oven temperature: 50° C. (1 minute), 50° C.-320° C. ([…], 40° C./min), 320° C. (6.75 minutes); Kovacs Indices calibrated with alkane mixture.
Consider `CC1(C)OB(c2cnc(Cl)c(C(=O)NC3CC3)c2)OC1(C)C` [2-chloro-N-cyclopropyl-5-(4,4,5,5-tetramethyl-1,3,2-dioxaborolan-2-yl)nicotinamide], for which the chromatographic logP came out at 0.9.

The same data set, now with this note: reversed-phase C18 HPLC column (Zorbax Eclipse Plus C18); HPLC-MS method a): Zorbax Eclipse Plus C18; acetonitrile (0.1% formic acid) / water (0.09% formic acid), gradient 10% to 95% acetonitrile, 55° C.; read-out: log P.
As for `CN(C(=O)c1cc(-c2cnn(-c3c(Cl)cc(C(F)(C(F)(F)F)C(F)(F)F)cc3OC(F)(F)F)c2)cnc1Cl)C1CC1` [2-Chloro-5-{1-[2-chloro-4-(1,1,1,2,3,3,3-heptafluoropropan-2-yl)-6-(trifluoromethoxy)phenyl]-1H-pyrazol-4-yl}-N-cyclopropyl-N-methylnicotinamide], the chromatographic logP came to 4.56. Turning to `FC(F)(F)C(F)(c1cc(Cl)c(-n2cc(I)cn2)c(Cl)c1)C(F)(F)F` [1-[2,6-dichloro-4-(1,1,1,2,3,3,3-heptafluoropropan-2-yl)phenyl]-4-iodo-1H-pyrazole], the chromatographic logP turned out to be 5.17. As for `FC(F)Oc1cc(C(F)(C(F)(F)F)C(F)(F)F)cc(Cl)c1-n1cccn1` [1-[2-chloro-6-(difluoromethoxy)-4-(1,1,1,2,3,3,3-heptafluoropropan-2-yl)phenyl]-1H-pyrazole], the chromatographic logP was 4.04. With `FC(F)(F)C(F)(c1cc(Cl)c(-n2cccn2)c(Cl)c1)C(F)(F)F` [1-[2,6-dichloro-4-(1,1,1,2,3,3,3-heptafluoropropan-2-yl)phenyl]-1H-pyrazole], the chromatographic logP was 4.22. For the compound `CN(C(=O)c1cc(-c2cnn(-c3c(Br)cc(C(F)(C(F)(F)F)C(F)(F)F)cc3C(F)(F)F)c2)cnc1Cl)C1CC1` [5-{1-[2-bromo-4-(1,1,1,2,3,3,3-heptafluoropropan-2-yl)-6-(trifluoromethyl)phenyl]-1H-pyrazol-4-yl}-2-chloro-N-cyclopropyl-N-methylnicotinamide], the chromatographic logP stood at 4.28. Turning to `N#CC1(NC(=O)c2cc(-c3cnn(-c4c(Cl)cc(C(F)(C(F)(F)F)C(F)(F)F)cc4Cl)c3)cnc2Cl)CC1` [2-Chloro-N-(1-cyanocyclopropyl)-5-{1-[2,6-dichloro-4-(1,1,1,2,3,3,3-heptafluoropropan-2-yl)phenyl]-1H-pyrazol-4-yl}nicotinamide], the chromatographic logP was determined as 3.81. Same read-out and setting: for `Cc1cc(C(F)(C(F)(F)F)C(F)(F)F)cc(C)c1-n1cccn1` [1-[4-(1,1,1,2,3,3,3-heptafluoropropan-2-yl)-2,6-dimethylphenyl]-1H-pyrazole] the value was 4.3; for `O=C(NC1CC1)c1cc(-c2cnn(-c3c(Br)cc(C(F)(C(F)(F)F)C(F)(F)F)cc3OC(F)(F)F)c2)cnc1Cl` [5-{1-[2-Bromo-4-(1,1,1,2,3,3,3-heptafluoropropan-2-yl)-6-(trifluoromethoxy)phenyl]-1H-pyrazol-4-yl}-2-chloro-N-cyclopropylnicotinamide], 4.25; for `Cc1cc(C(F)(C(F)(F)F)C(F)(F)F)cc(C)c1-n1cc(-c2cnc(Cl)c(C(=O)NC3(C#N)CC3)c2)cn1` [2-Chloro-N-(1-cyanocyclopropyl)-5-{1-[4-(1,1,1,2,3,3,3-heptafluoropropan-2-yl)-2,6-dimethylphenyl]-1H-pyrazol-4-yl}nicotinamide], 3.87. `Cc1cc(C(F)(C(F)(F)F)C(F)(F)F)cc(C)c1-n1cc(I)cn1` [1-[4-(1,1,1,2,3,3,3-heptafluoropropan-2-yl)-2,6-dimethylphenyl]-4-iodo-1H-pyrazole]: the chromatographic logP was found to be 5.2. Take `CN(C(=O)c1cc(-c2cnn(-c3c(Cl)cc(C(F)(C(F)(F)F)C(F)(F)F)cc3Cl)c2)cnc1Cl)C1CC1` [2-Chloro-N-cyclopropyl-5-{1-[2,6-dichloro-4-(1,1,1,2,3,3,3-heptafluoropropan-2-yl)phenyl]-1H-pyrazol-4-yl}-N-methylnicotinamide]: the chromatographic logP is 4.36. As to `FC(F)(F)c1cc(C(F)(C(F)(F)F)C(F)(F)F)cc(Br)c1-n1cccn1` [1-[2-bromo-4-(1,1,1,2,3,3,3-heptafluoropropan-2-yl)-6-(trifluoromethyl)phenyl]-1H-pyrazole], the chromatographic logP amounted to 4.42. For the compound `FC(F)(F)c1cc(C(F)(C(F)(F)F)C(F)(F)F)cc(Br)c1-n1cc(I)cn1` [1-[2-bromo-4-(1,1,1,2,3,3,3-heptafluoropropan-2-yl)-6-(trifluoromethyl)phenyl]-4-iodo-1H-pyrazole], the chromatographic logP is 5.22. Same read-out and setting: next, `CN(C(=O)c1cc(-c2cnn(-c3c(Cl)cc(C(F)(C(F)(F)F)C(F)(F)F)cc3Cl)c2)cnc1Cl)C1(C#N)CC1` [2-chloro-N-(1-cyanocyclopropyl)-5-{1-[2,6-dichloro-4-(1,1,1,2,3,3,3-heptafluoropropan-2-yl)phenyl]-1H-pyrazol-4-yl}-N-methylnicotinamide]: 4.31; `Cc1cc(C(F)(C(F)(F)F)C(F)(F)F)cc(C(F)(F)F)c1-n1cccn1` [1-[4-(1,1,1,2,3,3,3-heptafluoropropan-2-yl)-2-methyl-6-(trifluoromethyl)phenyl]-1H-pyrazole]: 4.4; `FC(F)(F)C(F)(c1cc(Cl)c(-n2cc(Br)cn2)c(Cl)c1)C(F)(F)F` [4-bromo-1-[2,6-dichloro-4-(1,1,1,2,3,3,3-heptafluoropropan-2-yl)phenyl]-1H-pyrazole]: 5.07.

Consider `O=C(NC1CC1)c1cc(-c2cnn(-c3c(Cl)cc(C(F)(C(F)(F)F)C(F)(F)F)cc3C(F)(F)F)c2)cnc1Cl` [2-Chloro-5-{1-[2-chloro-4-(1,1,1,2,3,3,3-heptafluoropropan-2-yl)-6-(trifluoromethyl)phenyl]-1H-pyrazol-4-yl}-N-cyclopropylnicotinamide], for which the chromatographic logP was found to be 4. For `FC(F)(F)c1cc(C(F)(C(F)(F)F)C(F)(F)F)cc(Cl)c1-n1cc(I)cn1` [1-[2-chloro-4-(1,1,1,2,3,3,3-heptafluoropropan-2-yl)-6-(trifluoromethyl)phenyl]-4-iodo-1H-pyrazole], the chromatographic logP worked out at 5.19. As to `FC(F)Oc1cc(C(F)(C(F)(F)F)C(F)(F)F)cc(Cl)c1-n1cc(I)cn1` [1-[2-chloro-6-(difluoromethoxy)-4-(1,1,1,2,3,3,3-heptafluoropropan-2-yl)phenyl]-4-iodo-1H-pyrazole], the chromatographic logP was determined as 4.82. Still for that read-out and setting: for `FC(F)(F)c1cc(C(F)(C(F)(F)F)C(F)(F)F)cc(Cl)c1-n1cccn1` [1-[2-chloro-4-(1,1,1,2,3,3,3-heptafluoropropan-2-yl)-6-(trifluoromethyl)phenyl]-1H-pyrazole] the value was 4.38. Consider `O=C(NC1CC1)c1cc(-c2cnn(-c3c(Cl)cc(C(F)(C(F)(F)F)C(F)(F)F)cc3OC(F)(F)F)c2)cnc1Cl` [2-chloro-5-{1-[2-chloro-4-(1,1,1,2,3,3,3-heptafluoropropan-2-yl)-6-(trifluoromethoxy)phenyl]-1H-pyrazol-4-yl}-N-cyclopropylnicotinamide], for which the chromatographic logP turned out to be 4.28. Turning to `CN(C(=O)c1cc(-c2cnn(-c3c(Cl)cc(C(F)(C(F)(F)F)C(F)(F)F)cc3C(F)(F)F)c2)cnc1Cl)C1CC1` [2-Chloro-5-{1-[2-chloro-4-(1,1,1,2,3,3,3-heptafluoropropan-2-yl)-6-(trifluoromethyl)phenyl]-1H-pyrazol-4-yl}-N-cyclopropyl-N-methylnicotinamide], the chromatographic logP came to 4.46.
